These results are taken from patent US9481885B2, “Methods and compositions related to miR-21 and miR-29a, exosome inhibition, and cancer metastasis” (Ohio State Innovation Foundation, priority 2011, dated 2016).

The target in the series is T1, human TLR8 (Homo sapiens, UniProt Q9NR97).
T1 construct: host or cells: HEK-Blue TLR8 293 (TLR8-HEK-293)
T1 sequence (Q9NR97 27-1041): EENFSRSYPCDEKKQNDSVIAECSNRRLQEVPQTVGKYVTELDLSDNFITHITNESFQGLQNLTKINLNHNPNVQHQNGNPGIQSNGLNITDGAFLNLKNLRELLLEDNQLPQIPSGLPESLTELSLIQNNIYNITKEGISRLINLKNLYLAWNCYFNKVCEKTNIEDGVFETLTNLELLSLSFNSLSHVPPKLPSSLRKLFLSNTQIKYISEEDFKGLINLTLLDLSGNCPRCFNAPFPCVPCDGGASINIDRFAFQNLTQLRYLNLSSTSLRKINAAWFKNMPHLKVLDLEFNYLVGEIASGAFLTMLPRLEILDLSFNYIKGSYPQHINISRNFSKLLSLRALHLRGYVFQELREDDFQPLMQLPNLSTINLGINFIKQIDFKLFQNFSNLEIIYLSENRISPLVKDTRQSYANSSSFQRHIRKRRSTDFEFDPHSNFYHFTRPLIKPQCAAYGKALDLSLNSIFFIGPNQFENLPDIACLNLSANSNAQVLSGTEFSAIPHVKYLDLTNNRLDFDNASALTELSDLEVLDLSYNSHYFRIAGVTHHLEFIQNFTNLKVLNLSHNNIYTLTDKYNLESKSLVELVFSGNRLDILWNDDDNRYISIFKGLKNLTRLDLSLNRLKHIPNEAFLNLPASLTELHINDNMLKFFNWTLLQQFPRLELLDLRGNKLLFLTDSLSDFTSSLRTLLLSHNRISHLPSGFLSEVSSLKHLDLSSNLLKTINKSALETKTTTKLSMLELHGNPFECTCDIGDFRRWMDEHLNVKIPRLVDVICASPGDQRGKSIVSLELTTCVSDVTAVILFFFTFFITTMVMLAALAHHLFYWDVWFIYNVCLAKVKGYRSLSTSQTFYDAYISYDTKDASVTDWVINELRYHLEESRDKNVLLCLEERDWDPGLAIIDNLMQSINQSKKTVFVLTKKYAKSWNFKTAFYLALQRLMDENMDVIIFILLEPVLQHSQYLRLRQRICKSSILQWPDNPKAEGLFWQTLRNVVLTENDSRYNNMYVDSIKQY
Description: NF-κB reporter assay (QUANTI-Blue) in TLR8-HEK-293 cells. The format is cell-based. The note with it: Dotap formulations of miRNA. The protocol: To investigate whether miRNA-induced activation of TLRs also occurs in human cells, an NF-κB reporter assay was performed in HEK-293 cells. NF-κB, a transcription factor modulating the expression of several cytokine genes, is activated by several TLRs, including the only ssRNA-binding human TLRs, TLR7 and TLR8. Therefore, we treated HEK-293 cells expressing human TLR7 or TLR8 (hereafter, TLR7- and TLR8-HEK-293 cells, respectively) with Dotap alone or with Dotap formulations of miR-16, -21, -29a, or -147 and performed an NF-κB reporter assay. As positive controls Gardiquimod and ssRNA40 were used, specific agonists of TLR7 and TLR8, respectively. […] To confirm this conclusion, transfected were TLR8-HEK-293 cells with a plasmid encoding a dominant negative form of TLR8 (TLR8DN) and treated these cells with the miRNAs of interest. In TLR8DN cells, the activation of NF-κB by miR-21 and miR-29a was abolished (FIG. 3F). […] NF-κB activity was assessed by QUANTI-Blue Assay (Invivogen). […] Levels of SEAP can be easily determined with QUANTI-Blue, a detection medium that turns purple/blue in the presence of alkaline phosphatase. […] The plate was then incubated at 37° C. for 1-3 h and SEAP levels were determined by reading the plate with a spectrophotometer at 620-655 nm (SpectraMax, Molecular Devices).
Background: In a reporter assay the amount or activity of a reporter protein is the signal.

Regarding “miR-147: synthetic mature miRNA (SEQ ID NO: 3), sequence similar to RNA33, Dotap formulation (GUGUGUGGAAAUGCUUCUGC; DOTAP formulation, further chemistry not given here)”, the NF-κB activation entry is “activated”.
